Experiments:
PI3Kdelta = PI3Kdelta (Homo sapiens (Human), UniProt O00329); assay: HTRF PI3K biochemical assay, delta isoform; conditions: 0.3 nM enzyme, 100 uM ATP, 50 uM PIP2; form screened (neutral or TFA salt)
PI3Kalpha = PI3Kalpha (Homo sapiens (Human), UniProt P42336); assay: HTRF PI3K biochemical assay, alpha isoform (selectivity versus delta); conditions: ratio PI3K-alpha IC50 value/PI3K-delta IC50 value
PI3Kalpha, sequence (P42336 whole entry, canonical isoform): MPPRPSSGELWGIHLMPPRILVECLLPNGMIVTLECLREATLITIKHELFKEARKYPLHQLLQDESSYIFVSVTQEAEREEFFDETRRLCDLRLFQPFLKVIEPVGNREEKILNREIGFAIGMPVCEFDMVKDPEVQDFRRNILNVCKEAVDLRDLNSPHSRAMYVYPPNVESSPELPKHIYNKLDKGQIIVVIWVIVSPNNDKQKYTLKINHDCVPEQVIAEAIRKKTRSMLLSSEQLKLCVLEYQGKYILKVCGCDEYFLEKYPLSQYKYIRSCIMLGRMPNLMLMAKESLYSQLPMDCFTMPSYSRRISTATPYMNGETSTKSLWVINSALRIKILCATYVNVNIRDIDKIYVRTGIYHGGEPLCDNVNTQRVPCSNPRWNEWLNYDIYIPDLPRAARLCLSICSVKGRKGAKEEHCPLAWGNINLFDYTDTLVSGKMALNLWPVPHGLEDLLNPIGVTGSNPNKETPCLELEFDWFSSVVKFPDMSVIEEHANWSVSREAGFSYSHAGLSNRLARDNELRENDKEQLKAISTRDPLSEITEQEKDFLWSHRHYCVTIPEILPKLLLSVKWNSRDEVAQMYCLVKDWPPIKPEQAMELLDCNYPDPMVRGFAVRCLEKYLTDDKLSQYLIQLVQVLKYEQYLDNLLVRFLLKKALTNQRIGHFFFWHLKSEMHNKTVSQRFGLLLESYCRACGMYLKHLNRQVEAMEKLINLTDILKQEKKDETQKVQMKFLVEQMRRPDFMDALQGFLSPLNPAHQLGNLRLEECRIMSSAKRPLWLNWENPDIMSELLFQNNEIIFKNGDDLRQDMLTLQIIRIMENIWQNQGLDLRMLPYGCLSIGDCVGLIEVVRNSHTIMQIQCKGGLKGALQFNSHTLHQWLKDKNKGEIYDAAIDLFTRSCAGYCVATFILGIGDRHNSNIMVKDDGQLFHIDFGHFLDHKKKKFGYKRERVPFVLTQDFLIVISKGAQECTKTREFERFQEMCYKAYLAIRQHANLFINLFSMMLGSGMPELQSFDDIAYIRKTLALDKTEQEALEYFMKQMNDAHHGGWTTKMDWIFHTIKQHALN
PI3Kalpha, sequence (P27986 whole entry partner, canonical isoform): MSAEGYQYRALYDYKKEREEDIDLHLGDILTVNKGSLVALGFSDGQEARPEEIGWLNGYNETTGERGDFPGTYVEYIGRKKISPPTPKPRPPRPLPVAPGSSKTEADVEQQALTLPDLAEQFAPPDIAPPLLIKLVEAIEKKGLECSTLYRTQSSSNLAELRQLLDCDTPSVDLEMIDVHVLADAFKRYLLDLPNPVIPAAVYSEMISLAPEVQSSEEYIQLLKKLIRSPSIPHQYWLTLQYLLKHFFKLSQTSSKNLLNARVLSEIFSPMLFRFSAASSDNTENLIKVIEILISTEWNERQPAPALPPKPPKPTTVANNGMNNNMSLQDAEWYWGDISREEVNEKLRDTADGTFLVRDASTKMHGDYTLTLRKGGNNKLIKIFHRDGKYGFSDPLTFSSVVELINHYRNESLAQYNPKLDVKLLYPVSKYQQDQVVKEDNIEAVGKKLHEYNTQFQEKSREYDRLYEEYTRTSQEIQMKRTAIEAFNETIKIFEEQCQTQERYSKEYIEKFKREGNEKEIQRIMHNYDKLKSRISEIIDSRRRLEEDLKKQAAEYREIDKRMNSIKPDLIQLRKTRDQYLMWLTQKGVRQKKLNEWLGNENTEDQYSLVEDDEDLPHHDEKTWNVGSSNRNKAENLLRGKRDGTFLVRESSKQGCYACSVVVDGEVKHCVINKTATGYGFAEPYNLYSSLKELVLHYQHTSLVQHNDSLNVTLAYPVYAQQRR

PI3Kdelta, sequence (O00329 whole entry, canonical isoform): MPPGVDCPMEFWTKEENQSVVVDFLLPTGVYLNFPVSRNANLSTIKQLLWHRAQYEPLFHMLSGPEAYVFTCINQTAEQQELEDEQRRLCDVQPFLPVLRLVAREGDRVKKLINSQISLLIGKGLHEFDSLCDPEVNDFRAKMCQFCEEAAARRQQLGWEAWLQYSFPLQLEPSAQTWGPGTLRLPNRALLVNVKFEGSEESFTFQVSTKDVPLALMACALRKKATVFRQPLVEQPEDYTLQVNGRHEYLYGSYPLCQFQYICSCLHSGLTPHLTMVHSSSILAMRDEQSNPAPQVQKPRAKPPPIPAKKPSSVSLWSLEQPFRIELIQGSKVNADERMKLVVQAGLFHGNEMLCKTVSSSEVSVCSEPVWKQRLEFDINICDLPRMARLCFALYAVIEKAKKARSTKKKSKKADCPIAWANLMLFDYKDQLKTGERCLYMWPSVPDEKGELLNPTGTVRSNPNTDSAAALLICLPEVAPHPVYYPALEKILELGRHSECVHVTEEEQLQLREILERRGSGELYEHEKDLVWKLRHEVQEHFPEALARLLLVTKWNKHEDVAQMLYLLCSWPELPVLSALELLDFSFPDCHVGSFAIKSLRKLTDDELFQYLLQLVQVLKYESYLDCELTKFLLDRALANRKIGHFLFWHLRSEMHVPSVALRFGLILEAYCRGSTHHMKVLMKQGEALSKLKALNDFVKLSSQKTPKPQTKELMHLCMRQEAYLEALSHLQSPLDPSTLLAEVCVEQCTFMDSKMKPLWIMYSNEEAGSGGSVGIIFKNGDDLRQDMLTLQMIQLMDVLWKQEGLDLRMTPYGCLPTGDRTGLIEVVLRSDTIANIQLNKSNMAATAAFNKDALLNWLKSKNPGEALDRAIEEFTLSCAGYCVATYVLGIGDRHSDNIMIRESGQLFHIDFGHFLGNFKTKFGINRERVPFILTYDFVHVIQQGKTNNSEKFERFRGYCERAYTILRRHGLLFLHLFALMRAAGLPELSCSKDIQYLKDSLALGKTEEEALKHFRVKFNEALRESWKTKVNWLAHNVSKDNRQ
PI3Kdelta, sequence (P27986 whole entry partner, canonical isoform): as the sequence (P27986 whole entry partner, canonical isoform) above

| IC50 (PI3Kdelta) [nM] | Relative Selectivity versus PI3Kalpha (PI3Kalpha) | Structure (SMILES) |
| --- | --- | --- |
| 2 | >10 | Cc1ncc(-c2nc3c(-c4ccc5c(c4)C4(CCCN4C(=O)C4CC4)C(=O)N5CCN4CCOCC4)ncnc3n2C)cn1 (single isomer, unassigned) [Compound 3-16, (R or S)-1′-(cyclopropanecarbonyl)-5-(9-methyl-8-(2-methylpyrimidin-5-yl)-9H-purin-6-yl)-1-(2-morpholinoethyl)spiro[indoline-3,2′-pyrrolidin]-2-one] |
| 2.5 | >10 | Cc1ncc(-c2nc3c(-c4ccc5c(c4)C4(CCCN4C(=O)C4CC4)C(=O)N5CC(C)(C)O)ncnc3n2C)cn1 (single isomer, unassigned) [Compound 3-17, (R or S)-1′-(cyclopropanecarbonyl)-1-(2-hydroxy-2-methylpropyl)-5-(9-methyl-8-(2-methylpyrimidin-5-yl)-9H-purin-6-yl)spiro[indoline-3,2′-pyrrolidin]-2-one] |
| 1.9 | >10 | Cc1ncc(-c2nc3c(-c4ccc5c(c4)C4(CCCN4C(=O)C4CC4)C(=O)N5CCO)ncnc3n2C)cn1 (single isomer, unassigned) [Compound 3-18, (R or S)-1′-(cyclopropanecarbonyl)-1-(2-hydroxyethyl)-5-(9-methyl-8-(2-methylpyrimidin-5-yl)-9H-purin-6-yl)spiro[indoline-3,2′-pyrrolidin]-2-one] |
| 0.7 | >10 | CCn1c(-c2cnc(C)nc2)nc2c(-c3ccc4c(c3)C3(CCCN3S(C)(=O)=O)C(=O)N4)ncnc21 (single isomer, unassigned) [Compound 3-19, (R or S)-5-(9-ethyl-8-(2-methylpyrimidin-5-yl)-9H-purin-6-yl)-1′-(methylsulfonyl)spiro[indoline-3,2′-pyrrolidin]-2-one] |
| 55 | >10 | CCn1c(-c2cnc(C)nc2)nc2c(-c3ccc4c(c3)C3(CCCN3S(C)(=O)=O)C(=O)N4)ncnc21 (single isomer, unassigned) [Compound 3-20, (R or S)-5-(9-ethyl-8-(2-methylpyrimidin-5-yl)-9H-purin-6-yl)-1′-(methylsulfonyl)spiro[indoline-3,2′-pyrrolidin]-2-one] |
| 69 | 2 | CCn1c(-c2cnc(C)nc2)nc2c(-c3ccc4c(c3)C3(CCCN3S(=O)(=O)C(F)(F)F)C(=O)N4)ncnc21 (single isomer, unassigned) [Compound 3-21, (R or S)-5-(9-ethyl-8-(2-methylpyrimidin-5-yl)-9H-purin-6-yl)-1′-((trifluoromethyl)sulfonyl)spiro[indoline-3,2′-pyrrolidin]-2-one] |
| 4 | >10 | CCn1c(-c2cnc(C)nc2)nc2c(-c3ccc4c(c3)C3(CCCN3S(=O)(=O)C(F)(F)F)C(=O)N4)ncnc21 (single isomer, unassigned) [Compound 3-22, (R or S)-5-(9-ethyl-8-(2-methylpyrimidin-5-yl)-9H-purin-6-yl)-1′-((trifluoromethyl)sulfonyl)spiro[indoline-3,2′-pyrrolidine]-2-one] |
| 6 | >10 | CCn1c(-c2cnc(C)nc2)nc2c(-c3ccc4c(c3)C3(CCCN3S(C)(=O)=O)C(=O)N4C)ncnc21 (single isomer, unassigned) [Compound 3-23, (R or S)-5-(9-ethyl-8-(2-methylpyrimidin-5-yl)-9H-purin-6-yl)-1-methyl-1′-(methylsulfonyl)spiro[indoline-3,2′-pyrrolidin]-2-one] |
| 32 | >10 | CCn1c(-c2cnc(C)nc2)nc2c(-c3ccc4c(c3)C3(CCCN3S(C)(=O)=O)C(=O)N4C)ncnc21 (single isomer, unassigned) [Compound 3-24, (R or S)-5-(9-ethyl-8-(2-methylpyrimidin-5-yl)-9H-purin-6-yl)-1-methyl-1′-(methylsulfonyl)spiro[indoline-3,2′-pyrrolidin]-2-one] |
| 29 | >10 | CCN1CCCC12C(=O)Nc1ccc(-c3ncnc4c3nc(-c3cnc(C)nc3)n4CC)cc12 (single isomer, unassigned) [Compound 3-26, (R or S)-1′-ethyl-5-(9-ethyl-8-(2-methylpyrimidin-5-yl)-9H-purin-6-yl)spiro[indoline-3,2′-pyrrolidin]-2-one] |
| 9 | >10 | CCN1CCCC12C(=O)Nc1ccc(-c3ncnc4c3nc(-c3cnc(C)nc3)n4CC)cc12 (single isomer, unassigned) [Compound 3-27, (R or S)-1′-ethyl-5-(9-ethyl-8-(2-methylpyrimidin-5-yl)-9H-purin-6-yl)spiro[indoline-3,2′-pyrrolidin]-2-one] |
| 99 | >10 | CCN1CCCC12C(=O)Nc1ccc(-c3ncnc4c3nc(-c3cnc(C)nc3)n4C)cc12 (single isomer, unassigned) [Compound 3-28, (R or S)-1′-ethyl-5-(9-methyl-8-(2-methylpyrimidin-5-yl)-9H-purin-6-yl)spiro[indoline-3,2′-pyrrolidin]-2-one] |
| 15 | >10 | CCN1CCCC12C(=O)Nc1ccc(-c3ncnc4c3nc(-c3cnc(C)nc3)n4C)cc12 (single isomer, unassigned) [Compound 3-29, (R or S)-1′-ethyl-5-(9-methyl-8-(2-methylpyrimidin-5-yl)-9H-purin-6-yl)spiro[indoline-3,2′-pyrrolidin]-2-one] |
| 156 | 5 | CCn1c(-c2cnc(C)nc2)nc2c(-c3ccc4c(c3)C3(CCCO3)C(=O)N4)ncnc21 (single isomer, unassigned) [Compound 3-30, (R or S)-5′-(9-ethyl-8-(2-methylpyrimidin-5-yl)-9H-purin-6-yl)-4,5-dihydro-3H-spiro[furan-2,3′-indolin]-2′-one] |
| 99 | >10 | CCn1c(-c2cnc(C)nc2)nc2c(-c3ccc4c(c3)C3(CCCO3)C(=O)N4)ncnc21 (single isomer, unassigned) [Compound 3-31, (R or S)-5′-(9-ethyl-8-(2-methylpyrimidin-5-yl)-9H-purin-6-yl)-4,5-dihydro-3H-spiro[furan-2,3′-indolin]-2′-one] |
| 169 | >10 | CCn1c(-c2cnc(C)nc2)nc2c(-c3ccc4c(c3)C3(CCCN3)C(=O)N4)ncnc21 (single isomer, unassigned) [Compound 3-32, (R or S)-5-(9-ethyl-8-(2-methylpyrimidin-5-yl)-9H-purin-6-yl)spiro[indoline-3,2′-pyrrolidin]-2-one] |
| 67 | >10 | CCn1c(-c2cnc(C)nc2)nc2c(-c3ccc4c(c3)C3(CCCN3)C(=O)N4)ncnc21 (single isomer, unassigned) [Compound 3-33, (R or S)-5-(9-ethyl-8-(2-methylpyrimidin-5-yl)-9H-purin-6-yl)spiro[indoline-3,2′-pyrrolidin]-2-one] |
| 14 | >10 | CCn1c(-c2cnc(C)nc2)nc2c(-c3ccc4c(c3)C3(CCN(C(C)C)C3)C(=O)N4)ncnc21 (single isomer, unassigned) [Compound 3-35, (R or S)-5-(9-ethyl-8-(2-methylpyrimidin-5-yl)-9H-purin-6-yl)-1′-isopropylspiro[indoline-3,3′-pyrrolidin]-2-one] |

Reference: patent US10544147B2, “Purine inhibitors of human phosphatidylinositol 3-kinase delta” (MERCK SHARP & DOHME CORP., priority 2016, dated 2020)
